Experiments:
[1] = tested on: Fusarium culmorum; experiment: microbe, parasite or virus in culture; assay type: cell-based; details: read-out: control of Fusarium culmorum
[2] = tested on: Monographella nivalis (Microdochium nivale); experiment: Monographella nivalis (Microdochium nivale) / liquid culture (foot rot cereals); assay type: cell-based; details: compared to untreated control, growth inhibition determined photometrically 4-5 days after application
[3] = tested on: Botryotinia fuckeliana (Botrytis cinerea); experiment: Botryotinia fuckeliana (Botrytis cinerea) / liquid culture (gray mould); assay type: cell-based; details: 72 h, compared to untreated control, growth inhibition determined photometrically 3-4 days after application
[4] = tested on: Glomerella lagenarium (Colletotrichum lagenarium); experiment: Glomerella lagenarium (Colletotrichum lagenarium) / liquid culture (anthracnose); assay type: cell-based; details: Colletotrichum orbiculare, compared to untreated control, growth inhibition measured photometrically 3-4 days after application
[5] = tested on: Mycosphaerella graminicola (Septoria tritici); experiment: Mycosphaerella graminicola (Septoria tritici) / liquid culture (Septoria blotch); assay type: cell-based; details: Zymoseptoria tritici, compared to untreated control, growth inhibition determined photometrically 4-5 days after application
[6] = tested on: Magnaporthe grisea (Pyricularia oryzae); experiment: microbe, parasite or virus in culture; assay type: cell-based; details: read-out: control of Magnaporthe grisea

| Compound | inhibition of growth at 20 ppm [1] | inhibition of growth at 20 ppm [2] | inhibition of growth at 20 ppm [3] | inhibition of growth at 20 ppm [4] | inhibition of growth at 20 ppm [5] | melting point | inhibition of growth at 20 ppm [6] |
| --- | --- | --- | --- | --- | --- | --- | --- |
| CC1CC(Cc2ccccc2)N=C(c2cnc3c(F)c(F)ccc3c2)O1 (single isomer, unassigned) [E-25, 4-benzyl-2-(7,8-difluoro-3-quinolyl)-6-methyl-5,6-dihydro-4H-1,3-oxazine] | ≥ 80% | ≥ 80% | ≥ 80% | ≥ 80% | ≥ 70% |  |  |
| CC1(CCl)CC(Cc2ccccc2)N=C(c2cnc3c(F)c(F)ccc3c2)O1 (centres unmarked) [E-1, 4-benzyl-6-(chloromethyl)-2-(7,8-difluoro-3-quinolyl)-6-methyl-4,5-dihydro-1,3-oxazine] | ≥ 80% | ≥ 80% | ≥ 80% |  | ≥ 70% |  |  |
| CC1(C)CC(Cc2ccccc2)N=C(c2cnc3c(C#N)cccc3c2)O1 (centres unmarked) [E-2, 3-(4-benzyl-6,6-dimethyl-4,5-dihydro-1,3-oxazin-2-yl)quinoline-8-carbonitrile] | ≥ 80% | ≥ 80% |  |  | ≥ 70% |  |  |
| CC1(C)CC(Cc2ccccc2)N=C(c2cnc3c(Cl)cccc3c2)O1 (centres unmarked) [E-3, 4-benzyl-2-(8-chloro-3-quinolyl)-6,6-dimethyl-4,5-dihydro-1,3-oxazine] |  | ≥ 80% | ≥ 80% |  | ≥ 70% | 150 to 152 °C |  |
| Cc1cccc2cc(C3=NC(Cc4ccccc4)CC(C)(C)O3)cnc12 (centres unmarked) [E-4, 4-benzyl-6,6-dimethyl-2-(8-methyl-3-quinolyl)-4,5-dihydro-1,3-oxazine] |  | ≥ 80% | ≥ 80% |  | ≥ 70% | 120 to 122 °C |  |
| CC1(C)CC(Cc2ccccc2)N=C(c2cnc3ccccc3c2)O1 (centres unmarked) [E-5, 4-benzyl-6,6-dimethyl-2-(3-quinolyl)-4,5-dihydro-1,3-oxazine] | ≥ 80% | ≥ 80% | ≥ 80% | ≥ 80% | ≥ 70% |  |  |
| CC1(C)CC(Cc2ccccc2)N=C(c2cnc3c(F)c(F)ccc3c2)S1 (centres unmarked) [E-6, 4-benzyl-2-(7,8-difluoro-3-quinolyl)-6,6-dimethyl-4,5-dihydro-1,3-thiazine] | ≥ 80% | ≥ 80% | ≥ 80% | ≥ 80% |  | 153 to 155 °C |  |
| CC1(C)CC(Cc2ccccc2)N=C(c2cnc3c(F)c(F)ccc3c2)O1 (centres unmarked) [E-8, 4-benzyl-2-(7,8-difluoro-3-quinolyl)-6,6-dimethyl-4,5-dihydro-1,3-oxazine] |  |  |  | ≥ 80% |  | 93 to 96 °C |  |
| CC1(C)CC(Cc2ccccc2)(C(F)(F)F)N=C(c2cnc3c(F)cccc3c2)O1 (centres unmarked) [E-12, 4-benzyl-2-(8-fluoro-3-quinolyl)-6,6-dimethyl-4-(trifluoromethyl)-5H-1,3-oxazine] |  | ≥ 80% | ≥ 80% | ≥ 80% |  |  | ≥ 80% |
| CC1(C)CC(C)(C(F)(F)c2ccccc2)N=C(c2cnc3c(F)cccc3c2)O1 (centres unmarked) [E-14, 4-[difluoro(phenyl)methyl]-2-(8-fluoro-3-quinolyl)-4,6,6-trimethyl-5H-1,3-oxazine] |  | ≥ 80% | ≥ 80% | ≥ 80% | ≥ 70% | 101 to 105 °C | ≥ 80% |
| Cc1c(C2=NC(C)(Cc3ccccc3)CC(C)(C)O2)cnc2c(F)cccc12 (centres unmarked) [E-15, 4-benzyl-2-(8-fluoro-4-methyl-3-quinolyl)-4,6,6-trimethyl-5H-1,3-oxazine] |  | ≥ 80% | ≥ 80% | ≥ 80% | ≥ 70% |  | ≥ 80% |
| Fc1ccc2cc(C3=NC(Cc4ccccc4)CC(CI)O3)cnc2c1F (centres unmarked) [E-26, 4-benzyl-2-(7,8-difluoro-3-quinolyl)-6-(iodomethyl)-5,6-dihydro-4H-1,3-oxazine] | ≥ 80% |  | ≥ 80% |  |  | 137 to 139 °C |  |
| N#Cc1c(F)ccc2cc(C3=NC(Cc4ccccc4)CC4(CCCC4)O3)cnc12 (centres unmarked) [E-27, 3-(9-benzyl-6-oxa-8-azaspiro[4.5]dec-7-en-7-yl)-7-fluoro-quinoline-8-carbonitrile] |  |  | ≥ 80% |  |  |  |  |
| CC1(C)CC(Cc2ccccc2)N=C(c2cnc3c(C#N)c(F)ccc3c2)O1 (centres unmarked) [E-28, 3-(4-benzyl-6,6-dimethyl-4,5-dihydro-1,3-oxazin-2-yl)-7-fluoro-quinoline-8-carbonitrile] |  | ≥ 80% | ≥ 80% |  |  | 126 to 133 °C | ≥ 80% |
| CC1(C)CC(Cc2ccccc2)N=C(c2cnc3c(F)c(Cl)ccc3c2)O1 (centres unmarked) [E-29, 4-benzyl-2-(7-chloro-8-fluoro-3-quinolyl)-6,6-dimethyl-4,5-dihydro-1,3-oxazine] |  | ≥ 80% |  | ≥ 80% | ≥ 70% | 135 to 137 °C |  |
| CC1(C)CC(Cc2ccccc2)N=C(c2cc3cccc(F)c3nc2F)O1 (centres unmarked) [E-30, 4-benzyl-2-(2,8-difluoro-3-quinolyl)-6,6-dimethyl-4,5-dihydro-1,3-oxazine] | ≥ 80% | ≥ 80% | ≥ 80% |  | ≥ 70% | 105 to 107 °C | ≥ 80% |
| CC1(C)CC(Cc2ccccc2)N=C(c2cnc3cc(F)ccc3c2)O1 (centres unmarked) [E-32, 4-benzyl-2-(7-fluoro-3-quinolyl)-6,6-dimethyl-4,5-dihydro-1,3-oxazine] | ≥ 80% | ≥ 80% | ≥ 80% |  | ≥ 70% |  |  |
| CC1(C)CC(Cc2ccccc2)N=C(c2cnc3cc(Cl)ccc3c2)O1 (centres unmarked) [E-33, 4-benzyl-2-(7-chloro-3-quinolyl)-6,6-dimethyl-4,5-dihydro-1,3-oxazine] |  | ≥ 80% |  |  | ≥ 70% |  |  |
| CC1(C)CC(Cc2ccccc2)N=C(c2cnc3c(F)c(C#N)ccc3c2)O1 (centres unmarked) [E-34, 3-(4-benzyl-6,6-dimethyl-4,5-dihydro-1,3-oxazin-2-yl)-8-fluoro-quinoline-7-carbonitrile] |  | ≥ 80% |  | ≥ 80% |  |  |  |
| Fc1ccc2cc(C3=NC(Cc4ccccc4)CC4(CCCC4)O3)cnc2c1Cl (centres unmarked) [E-35, 9-benzyl-7-(8-chloro-7-fluoro-3-quinolyl)-6-oxa-8-azaspiro[4.5]dec-7-ene] |  | ≥ 80% | ≥ 80% |  | ≥ 70% | 150 to 151 °C |  |
| CC1(C)CC(Cc2ccccc2)N=C(c2cc3cccc(F)c3nc2Cl)O1 (centres unmarked) [E-36, 4-benzyl-2-(2-chloro-8-fluoro-3-quinolyl)-6,6-dimethyl-4,5-dihydro-1,3-oxazine] |  |  |  |  | ≥ 70% |  |  |
| CC1(Cc2ccccc2)CC(C)(C)OC(c2cnc3c(F)cccc3c2)=N1 (centres unmarked) [F-1] |  |  |  |  |  | 109 to 111 °C |  |
| CC1(C)CC(Cc2ccccc2)N=C(c2cnc3c(F)c(F)ccc3c2)O1 (centres unmarked) [F-6] |  |  |  |  |  | 102 to 105 °C |  |

From patent publication US12012399B2, “Microbiocidal quinoline dihydro-(thiazine)oxazine derivatives” (priority 2018, dated 2024)
